Data as given in patent US5945404A, “21-Substituted steroid compound” (priority 1993, dated 1999).

Experiments:
granuloma = experiment: Inhibitory Effects on Granuloma Growth (Paper Disk Method); assay type: in vivo, male Sprague-Dawley rats; settings: rat, paper disk, ointment 0.1%, 50 mg once a day, 7 days
Experimental: (§1) Ointment to be tested was prepared usign white soft paraffin as the base and containing dexamethasone at 0.1% concentration.
Groups of 5 male Sprague-Dawley rats each weighing 150-170 g were used. Under ether anesthesia, the dorsum of animals was closely clipped, and medianly incised. After each one pre-weighed paper disk (8-mm diameter, 1-mm thick, weighing about 30 mg; Toyo-Roshi filter paper) was inserted subcutaneously into both sides of the dorsal incision, the incision was sutured. In order to prevent bacterial infection, penicillin G potassium salt (2,000 units) per rat was intramascularly injected after the surgery. Base or ointment to be tested (50 mg each) was rubbed carefully into the skin over the paper disk inserted site, for 30 seconds once a day for the duration of 7 days. Rats were slipped plastic cangs on to prevent them from licking the drug applied sites. On the 8th day of the test, rats were sacrificed under ether anesthesia, and granulomas were carefully excised. Granulomas were dried at 40° C. for 24 h, and their dry weights were recorded.
Inhibitory effects of dexamethasone derivatives on the weight increase of granuloma of experimental animals as compared with those of control animals are shown as per cent of inhibition ov er the control in Table 1. Figures wihth asterisks in the table indicate signfiicant difference. The same will be applied to the following other tables.

[1] = system: croton oil-induced ear edema; experiment: Inhibitory Effects on Croton oil-induced Ear Lobe Edema; assay type: in vivo, male ddY mice; settings: Table 5, ointment 20 mg, mouse ear lobe
Experimental: as §1
Groups of 10 male ddY mice each weighing about 25 g were used. Ointment to be tested (20 mg) was rubbed in the right-side ear lobe, and, 30 min later, a drop of 4 % croton oil dissolved in either was applied to it. Thirty minute after that treatment, mice were sacrificed. Ear lobes on both sides were punched out in the size of 5-mm diameter, and weighed. Results were expressed by calculating the per cent of weight change of the right edema ear as compared with that of the untreated left ear, and compared with that of the control.

With `CC(=O)N[C@H]1C(OCC(=O)[C@@]2(O)[C@H](C)C[C@H]3[C@@H]4CCC5=CC(=O)C=C[C@]5(C)[C@@]4(F)[C@@H](O)C[C@@]32C)O[C@H](CO)[C@H](O)[C@@H]1O` (stereo partly drawn) [Compound 45', N-acetylgalactosaminyldexamethasone] the “Weight of granuloma, per cent of change of the controls” value (granuloma; listed as 45') was -11.8 ± 10.1 per cent and the “Percent of inhibition of ear edema” value ([1]; listed as 45') was 21.0 ± 6.4%.
With `CC(=O)OC1C(C)OC(OCC(=O)C2(O)C(C)CC3C4CCC5=CC(=O)C=CC5(C)C4(F)C(O)CC32C)C(OC(C)=O)C1OC(C)=O` (stereo not drawn) [Compound 74β, fucosyldexamethasone] the “Weight of granuloma, per cent of change of the controls” value (granuloma) was 1.6 ± 16.2 per cent and the “Percent of inhibition of ear edema” value [1] was 14.1 ± 4.5%.
For `CC1OC(OCC(=O)C2(O)C(C)CC3C4CCC5=CC(=O)C=CC5(C)C4(F)C(O)CC32C)C(O)C(O)C1O` (stereo not drawn) [Compound 75β, β-fucosyldexamethasone], the “Weight of granuloma, per cent of change of the controls” value (granuloma) was -10.0 ± 8.8 per cent and the “Percent of inhibition of ear edema” value [1] was 22.0 ± 4.7%.
